Test system: A549 cells
Assay: Cell migration assay (24-well transwell, laminin)
Format: cell-based, human
Details: Homo sapiens, A549, 6 h, laminin 10 μg/mL in lower well, test compounds 0.39˜100 μM, migrated cells counted, read-out: Inhibitory activity against cell migration
Method: Cell migration was measured with a 24-well transwell having a polycarbonate membrane (8.0 μm pore size, Costar) at the bottom of the upper chamber. Each lower well was treated with laminin (10 μg/mL) and test compounds in predetermined concentrations (0.39˜100 μM) along with a serum-free RPMI1640 medium. A549 cells (Korean Cell Line Bank) were suspended in a serum-free RPMI1640 medium at a concentration of 1×10^6 cells/mL and then the test compounds were added thereto at the indicated concentrations. Each resulting solution (100 μL) was added to the upper chamber. The cells were cultured at 37° C. for 6 hours in a CO2 incubator. The upper chamber was taken out and then the cells were fixed with PBS containing 70% methyl alcohol for 10 minutes, followed by washing with PBS twice. The cells were stained with hematoxylin (Sigma) for 10 minutes and then washed with distilled water. The non-migrated cells were removed from the upper portion of the polycarbonate membrane with a cotton swab. The membranes were excised and separated from the chamber, and then mounted to a slide using a gel mount reagent (Biomeda, USA). The migrated cells (attached to the lower face of the membrane) were counted at three randomly selected sites under a microscope (×20). The cell counting was performed with the Image J program. From the counted cell numbers, each IC50 value was calculated by non-linear regression curve fit using the “GraphPad Prism” program.
The cells are pulled by laminin residing in the lower chamber and then passed through the polycarbonate membrane, so as to attach to the lower face of the membrane.

| Compound | IC50 |
| --- | --- |
| CCC(c1ccc(C(=O)O)cc1)N(CCc1ccc(OC)cc1Cl)c1nc2cccc(F)c2s1 (stereo not shown) [Example 70, 4-(1-{[2-(2-chloro-4-methoxyphenyl)ethyl](7-fluorobenzo[d]thiazol-2-yl)amino}propyl)benzoic acid] | > 10000 nM |
| CCC(c1ccc(C(=O)O)cc1)N(CCc1ccc(OC)c(C)c1C)c1nc2cccc(F)c2s1 (stereo not shown) [Example 71, 4-(1-{(7-fluorobenzo[d]thiazol-2-yl)[2-(4-methoxy-2,3-dimethylphenyl)ethyl]amino}propyl)benzoic acid] | > 10000 nM |
| CCC(c1ccc(C(=O)O)cc1)N(CCc1cc(C)c(OC)cc1C)c1nc2cccc(F)c2s1 (stereo not shown) [Example 72, 4-(1-{(7-fluorobenzo[d]thiazol-2-yl)[2-(4-methoxy-2,5-dimethylphenyl)ethyl]amino}propyl)benzoic acid] | > 10000 nM |
| CCC(c1ccc(C(=O)O)cc1)N(CCc1ccc(OC)c(C)c1)c1nc2cccc(F)c2s1 (stereo not shown) [Example 73, 4-(1-{(7-fluorobenzo[d]thiazol-2-yl)[2-(4-methoxy-3-methylphenyl)ethyl]amino}propyl)benzoic acid] | > 10000 nM |
| CCC(c1ccc(C(=O)O)cc1)N(CCc1ccc(OC)cc1C)c1nc2cccc(F)c2s1 (stereo not shown) [Example 74, 4-(1-{(7-fluorobenzo[d]thiazol-2-yl)[2-(4-methoxy-2-methylphenyl)ethyl]amino}propyl)benzoic acid] | > 10000 nM |
| CCC(c1ccc(C(=O)O)cc1)N(CCc1c(F)cc(OC)cc1F)c1nc2cccc(F)c2s1 (stereo not shown) [Example 75, 4-(1-{[2-(2,6-difluoro-4-methoxyphenyl)ethyl](7-fluorobenzo[d]thiazol-2-yl)amino}propyl)benzoic acid] | > 10000 nM |
| CCC(c1ccc(C(=O)O)cc1)N(CCc1cc(C(C)C)c(OC)cc1C)c1nc2cccc(F)c2s1 (stereo not shown) [Example 76, 4-{1-[(7-fluorobenzo[d]thiazol-2-yl){2-[4-methoxy-2-methyl-5-(propan-2-yl)phenyl]ethyl}amino]propyl}benzoic acid] | > 10000 nM |
| COc1ccc(CCN(Cc2ccc(C(=O)O)c(O)c2)c2nc3cccc(F)c3s2)cc1 [Example 77, 4-({(7-fluorobenzo[d]thiazol-2-yl)[2-(4-methoxyphenyl)ethyl]amino}methyl)-2-hydroxybenzoic acid] | < 1000 nM |
| COc1ccc(CCN(Cc2ccc(C(=O)O)cc2Cl)c2nc3cccc(F)c3s2)cc1 [Example 78, 3-chloro-4-({(7-fluorobenzo[d]thiazol-2-yl)[2-(4-methoxyphenyl)ethyl]amino}methyl)benzoic acid] | < 1000 nM |
| COc1ccc(CCN(Cc2ccc(C(=O)O)cc2)c2nc3ccc([N+](=O)[O-])cc3s2)cc1 [Example 79, 4-({[2-(4-methoxyphenyl)ethyl](6-nitro-benzo[d]thiazol-2-yl)amino}methyl)benzoic acid] | < 1000 nM |
| COc1ccc(CCN(Cc2ccc(C(=O)O)cc2)c2nc3cccc([N+](=O)[O-])c3s2)cc1 [Example 80, 4-({[2-(4-methoxyphenyl)ethyl](7-nitro-benzo[d]thiazol-2-yl)amino}methyl)benzoic acid] | < 1000 nM |
| COc1ccc(CCN(Cc2ccc(C(=O)O)cc2)c2nc3ccc(N)cc3s2)cc1 [Example 81, 4-({(6-amino-benzo[d]thiazol-2-yl)[2-(4-methoxyphenyl)ethyl]amino}methyl)benzoic acid] | < 1000 nM |
| COc1ccc(CCN(Cc2ccc(C(=O)O)cc2)c2nc3cccc(N)c3s2)cc1 [Example 82, 4-({(7-amino-benzo[d]thiazol-2-yl)[2-(4-methoxyphenyl)ethyl]amino}methyl)benzoic acid] | < 1000 nM |
| COc1ccc(CCN(Cc2ccc(C(=O)O)cc2)c2nc3cccc(Cl)c3s2)cc1 [Example 83, 4-({(7-chloro-benzo[d]thiazol-2-yl)[2-(4-methoxyphenyl)ethyl]amino}methyl)benzoic acid] | < 1000 nM |
| COc1ccc(CCN(Cc2ccc(C(=O)O)cc2)c2nc3ccc(Cl)cc3s2)cc1 [Example 84, 4-({(6-chloro-benzo[d]thiazol-2-yl)[2-(4-methoxyphenyl)ethyl]amino}methyl)benzoic acid] | < 1000 nM |
| COc1ccc(CCN(Cc2ccc(C(=O)O)cc2)c2nc3cc(Cl)ccc3s2)cc1 [Example 85, 4-({(5-chloro-benzo[d]thiazol-2-yl)[2-(4-methoxyphenyl)ethyl]amino}methyl)benzoic acid] | < 1000 nM |
| COc1ccc(CCN(Cc2ccc(C(=O)O)cc2)c2nc3cc(F)c(F)cc3s2)cc1 [Example 86, 4-({(5,6-difluorobenzo[d]thiazol-2-yl)[2-(4-methoxyphenyl)ethyl]amino}methyl)benzoic acid] | < 1000 nM |

| Compound | IC50 |
| --- | --- |
| COc1ccc(CCN(Cc2ccc(C(=O)O)cc2)c2nc3cc(F)c(F)c(F)c3s2)cc1 [Example 87, 4-{[[2-(4-methoxyphenyl)ethyl](5,6,7-trifluorobenzo[d]thiazol-2-yl)amino]methyl}benzoic acid] | < 1000 nM |
| COc1ccc(CCN(Cc2ccc(C(=O)O)cc2)c2nc3ccc(Cl)c(F)c3s2)cc1 [Example 88, 4-({(6-chloro-7-fluorobenzo[d]thiazol-2-yl)[2-(4-methoxyphenyl)ethyl]amino}methyl)benzoic acid] | < 1000 nM |
| COc1ccc(CCN(Cc2ccc(C(=O)O)cc2)c2nc3cccc(C(F)(F)F)c3s2)cc1 [Example 89, 4-{[[2-(4-methoxyphenyl)ethyl](7-trifluoromethyl-benzo[d]thiazol-2-yl)amino]methyl}benzoic acid] | < 1000 nM |
| COc1ccc(CCN(Cc2ccc(C(=O)O)cc2)c2nc3ccc(F)c(F)c3s2)cc1 [Example 90, 4-({(6,7-difluorobenzo[d]thiazol-2-yl)-[2-(4-methoxyphenyl)ethyl]amino}methyl)benzoic acid] | < 1000 nM |
| COc1ccc(CCN(Cc2ccc(C(=O)O)cc2)c2nc3cc(Br)ccc3s2)cc1 [Example 91, 4-({(5-bromo-benzo[d]thiazol-2-yl)[2-(4-methoxyphenyl)ethyl]amino}methyl)benzoic acid] | < 1000 nM |
| COc1ccc(CCN(Cc2ccc(C(=O)O)cc2)c2nc3ccc(F)cc3s2)cc1 [Example 92, 4-({(6-fluorobenzo[d]thiazol-2-yl)[2-(4-methoxyphenyl)ethyl]amino}methyl)benzoic acid] | < 1000 nM |
| COc1ccc(CCN(Cc2ccc(C(=O)O)cc2)c2nc3cc(F)cc(F)c3s2)cc1 [Example 93, 4-({(5,7-difluorobenzo[d]thiazol-2-yl)[2-(4-methoxyphenyl)ethyl]amino}methyl)benzoic acid] | < 1000 nM |
| COc1ccc(CCN(Cc2ccc(C(=O)O)cc2)c2nc3ccc(C)c(F)c3s2)cc1 [Example 94, 4-({(7-fluoro-6-methyl-benzo[d]thiazol-2-yl)[2-(4-methoxyphenyl)ethyl]amino}methyl)benzoic acid] | < 1000 nM |
| COc1ccc(CCN(Cc2ccc(C(=O)O)cc2)c2nc3c(F)cc(F)cc3s2)cc1 [Example 95, 4-({(4,6-difluorobenzo[d]thiazol-2-yl)[2-(4-methoxyphenyl)ethyl]amino}methyl)benzoic acid] | < 1000 nM |
| COc1ccc(CCN(Cc2ccc(C(=O)O)cc2)c2nc3cccc(C)c3s2)cc1 [Example 96, 4-({[2-(4-methoxyphenyl)ethyl](7-methyl-benzo[d]thiazol-2-yl)amino}methyl)benzoic acid] | > 10000 nM |
| COc1ccc(CCN(Cc2ccc(C(=O)O)cc2)c2nc3ccc(C)cc3s2)cc1 [Example 97, 4-({[2-(4-methoxyphenyl)ethyl](6-methyl-benzo[d]thiazol-2-yl)amino}methyl)benzoic acid] | > 10000 nM |
| COc1ccc(CCN(Cc2ccc(C(=O)O)cc2)c2nc3cc(C)ccc3s2)cc1 [Example 98, 4-({[2-(4-methoxyphenyl)ethyl](5-methyl-benzo[d]thiazol-2-yl)amino}methyl)benzoic acid] | > 10000 nM |
| COc1ccc(CCN(c2nc3cc(F)cc(F)c3s2)C(C)c2ccc(C(=O)O)cc2)cc1 (stereo not shown) [Example 99, 4-(1-{(5,7-difluorobenzo[d]thiazol-2-yl)[2-(4-methoxyphenyl)ethyl]amino}ethyl)benzoic acid] | > 10000 nM |
| COc1ccc(CCN(c2nc3cc(F)c(F)cc3s2)C(C)c2ccc(C(=O)O)cc2)cc1 (stereo not shown) [Example 100, 4-(1-{(5,6-difluorobenzo[d]thiazol-2-yl)[2-(4-methoxyphenyl)ethyl]amino}ethyl)benzoic acid] | > 10000 nM |
| COc1ccc(CCN(c2nc3cc(F)c(F)c(F)c3s2)C(C)c2ccc(C(=O)O)cc2)cc1 (stereo not shown) [Example 101, 4-(1-{[2-(4-methoxyphenyl)ethyl](5,6,7-trifluorobenzo[d]thiazol-2-yl)amino}ethyl)benzoic acid] | > 10000 nM |
| COc1ccc(CCN(c2nc3ccc(Cl)c(F)c3s2)C(C)c2ccc(C(=O)O)cc2)cc1 (stereo not shown) [Example 102, 4-(1-{(6-chloro-7-fluorobenzo[d]thiazol-2-yl)[2-(4-methoxyphenyl)ethyl]amino}ethyl)benzoic acid] | > 10000 nM |
| COc1ccc(CCN(c2nc3cc(Br)ccc3s2)C(C)c2ccc(C(=O)O)cc2)cc1 (stereo not shown) [Example 103, 4-(1-{(5-bromo-benzo[d]thiazol-2-yl)[2-(4-methoxyphenyl)ethyl]amino}ethyl)benzoic acid] | > 10000 nM |

— patent US10383859B2, “Benzo[d]thiazole derivative or salt thereof, and pharmaceutical composition including same” (Yuhan Corporation, priority 2016, dated 2019)
